Values joined by “and” are separate entries in the source; they are usually repeats but may differ in a detail not shown here. Identical values can stand only once. Toxic doses and inconclusive results are not listed. No stated cut-off is given here; in the data, active means T/C of 150% or more; inactive means T/C below 125%.
Test system: L1210 leukemia ip in BDF1 mice, survival T/C
Assay: NCI In Vivo Anticancer Drug Screen. Data for tumor model L1210 Leukemia (intraperitoneal) in B6D2F1 (BDF1) mice
Conditions: endpoint: mean survival time, higher = longer survival
Method in brief: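 Read-out is survival time, reported as the treated-group measurement over the vehicle-control measurement.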

[1] = dose: 12.5 mg/kg/injection, schedule: Q04DX003 (ip), vehicle: saline with Tween-80
[2] = dose: 25.0 mg/kg/injection, schedule: Q04DX003 (ip), vehicle: saline with Tween-80
[3] = dose: 100.0 mg/kg/injection, schedule: Q01DX001 (ip), vehicle: Klucel (hydroxypropylcellulose) (HPC)
[4] = dose: 100.0 mg/kg/injection, schedule: Q01DX001 (ip), vehicle: carboxymethylcellulose (CMC)
[5] = dose: 100.0 mg/kg/injection, schedule: Q04DX003 (ip), vehicle: saline with Tween-80
[6] = dose: 200.0 mg/kg/injection, schedule: Q04DX003 (ip), vehicle: saline with Tween-80
[7] = dose: 400.0 mg/kg/injection, schedule: Q04DX003 (ip), vehicle: saline with Tween-80
[8] = dose: 100.0 mg/kg/injection, schedule: Q01DX009 (ip), vehicle: Klucel (hydroxypropylcellulose) (HPC)
[9] = dose: 100.0 mg/kg/injection, schedule: Q04DX003 (ip), vehicle: Klucel (hydroxypropylcellulose) (HPC)
[10] = dose: 200.0 mg/kg/injection, schedule: Q01DX009 (ip), vehicle: Klucel (hydroxypropylcellulose) (HPC)
[11] = dose: 200.0 mg/kg/injection, schedule: Q04DX003 (ip), vehicle: Klucel (hydroxypropylcellulose) (HPC)
[12] = dose: 400.0 mg/kg/injection, schedule: Q01DX009 (ip), vehicle: Klucel (hydroxypropylcellulose) (HPC)
[13] = dose: 200.0 mg/kg/injection, schedule: Q01DX001 (ip), vehicle: carboxymethylcellulose (CMC)
[14] = dose: 400.0 mg/kg/injection, schedule: Q01DX001 (ip), vehicle: carboxymethylcellulose (CMC)
[15] = dose: 50.0 mg/kg/injection, schedule: Q01DX009 (ip), vehicle: saline with Tween-80
[16] = dose: 100.0 mg/kg/injection, schedule: Q01DX009 (ip), vehicle: saline with Tween-80
[17] = dose: 200.0 mg/kg/injection, schedule: Q01DX009 (ip), vehicle: saline with Tween-80

Measured: T/C

ClCCN(CCCl)CCN1c2ccccc2Sc2ccccc21
inactive: dose: 9.37 mg/kg/injection, schedule: Q01DX009 (ip), vehicle: Klucel (hydroxypropylcellulose) (HPC) 114 % of control | dose: 12.5 mg/kg/injection, schedule: Q01DX001 (ip), vehicle: Klucel (hydroxypropylcellulose) (HPC) 114 % of control | [1] 103 % of control | dose: 16.5 mg/kg/injection, schedule: Q01DX001 (ip), vehicle: Klucel (hydroxypropylcellulose) (HPC) 100 % of control and 111 % of control | dose: 18.75 mg/kg/injection, schedule: Q01DX009 (ip), vehicle: Klucel (hydroxypropylcellulose) (HPC) 106 % of control | dose: 25.0 mg/kg/injection, schedule: Q01DX001 (ip), vehicle: Klucel (hydroxypropylcellulose) (HPC) 95 % of control and 112 % of control | [2] 108 % of control | dose: 29.0 mg/kg/injection, schedule: Q01DX015 (ip), vehicle: carboxymethylcellulose (CMC) 102 % of control | dose: 37.5 mg/kg/injection, schedule: Q01DX001 (ip), vehicle: Klucel (hydroxypropylcellulose) (HPC) 101 % of control and 122 % of control | dose: 37.5 mg/kg/injection, schedule: Q01DX009 (ip), vehicle: Klucel (hydroxypropylcellulose) (HPC) 89 % of control | dose: 50.0 mg/kg/injection, schedule: Q04DX003 (ip), vehicle: saline with Tween-80 92 % of control | dose: 85.0 mg/kg/injection, schedule: Q04DX003 (ip), vehicle: Klucel (hydroxypropylcellulose) (HPC) 115 % of control | dose: 88.8 mg/kg/injection, schedule: Q01DX001 (ip), vehicle: carboxymethylcellulose (CMC) 115 % of control | [3] 119 % of control | [4] 104 % of control | dose: 133.0 mg/kg/injection, schedule: Q01DX001 (ip), vehicle: carboxymethylcellulose (CMC) 113 % of control and 115 % of control

CC1=C2C3OC(=O)C(C)C3C=CC2(C)C(=O)CC1 (centres undefined)
inactive: [5] 87 % of control | [6] 89 % of control | [7] 89 % of control

N=C(N)c1ccc(-c2[nH]c3cc(C(=N)N)ccc3c2-c2ccccc2)cc1
inactive: dose: 12.5 mg/kg/injection, schedule: Q04DX003 (ip), vehicle: saline 100 % of control and 110 % of control | dose: 25.0 mg/kg/injection, schedule: Q04DX003 (ip), vehicle: saline 100 % of control and 110 % of control | dose: 50.0 mg/kg/injection, schedule: Q04DX003 (ip), vehicle: saline 108 % of control and 112 % of control

Nc1nc(CCCCc2ccc(NC(=O)CBr)cc2)c(CCCCc2ccccc2)c(=O)[nH]1
inactive: dose: 6.25 mg/kg/injection, schedule: Q04DX003 (ip), vehicle: saline with Tween-80 96 % of control | [1] 105 % of control | [2] 102 % of control and 110 % of control | dose: 50.0 mg/kg/injection, schedule: Q01DX001 (ip), vehicle: saline 108 % of control | [5] 91 % of control

CCOC(=O)CCC1C(C#N)C2(Cl)C(Cl)=C(Cl)C1(Cl)C2(Cl)Cl (centres undefined)
inactive: [8] 98 % of control | [9] 93 % of control | [10] 98 % of control | [11] 93 % of control | [12] 96 % of control | dose: 400.0 mg/kg/injection, schedule: Q04DX003 (ip), vehicle: Klucel (hydroxypropylcellulose) (HPC) 92 % of control

Cl[Si](c1ccccc1)(c1ccccc1)c1ccc([Si](Cl)(c2ccccc2)c2ccccc2)cc1
inactive: dose: 100.0 mg/kg/injection, schedule: Q04DX002 (ip), vehicle: saline with Tween-80 87 % of control | dose: 200.0 mg/kg/injection, schedule: Q04DX002 (ip), vehicle: saline with Tween-80 92 % of control | dose: 400.0 mg/kg/injection, schedule: Q04DX002 (ip), vehicle: saline with Tween-80 96 % of control

CCOC(C)C(/C=N/Nc1ccccc1)=N\Nc1ccccc1 (centres undefined)
inactive: dose: 15.0 mg/kg/injection, schedule: Q01DX Z (ip), vehicle: carboxymethylcellulose (CMC) 98 % of control | dose: 30.0 mg/kg/injection, schedule: Q01DX Z (ip), vehicle: carboxymethylcellulose (CMC) 97 % of control | dose: 60.0 mg/kg/injection, schedule: Q01DX Z (ip), vehicle: carboxymethylcellulose (CMC) 97 % of control | dose: 120.0 mg/kg/injection, schedule: Q01DX Z (ip), vehicle: carboxymethylcellulose (CMC) 92 % of control

COC(=O)c1cc(=O)c2cc(C(C)=O)ccc2[nH]1
inactive: dose: 100.0 mg/kg/injection, schedule: Q01DX001 (ip), vehicle: other 95 % of control | dose: 200.0 mg/kg/injection, schedule: Q01DX001 (ip), vehicle: other 94 % of control and 89 % of control | dose: 400.0 mg/kg/injection, schedule: Q01DX001 (ip), vehicle: other 105 % of control and 90 % of control

CC(=O)NC(C)C#N (centres undefined)
inactive: [5] 103 % of control | [6] 95 % of control | [7] 95 % of control

CCCCCCc1c(C)nc(N)[nH]c1=O
inactive: [3] 92 % of control | [8] 105 % of control | dose: 200.0 mg/kg/injection, schedule: Q01DX001 (ip), vehicle: Klucel (hydroxypropylcellulose) (HPC) 89 % of control | [10] 100 % of control | dose: 400.0 mg/kg/injection, schedule: Q01DX001 (ip), vehicle: Klucel (hydroxypropylcellulose) (HPC) 92 % of control | [12] 97 % of control

N#CC(C#N)=Cc1cc(Cl)ccc1O
inactive: dose: 100.0 mg/kg/injection, schedule: Q01DX001 (ip), vehicle: saline 96 % of control | dose: 200.0 mg/kg/injection, schedule: Q01DX001 (ip), vehicle: saline 96 % of control

CC1(O)OC(n2c(Br)nc3c(N)ncnc32)C(O)C1O (centres undefined)
inactive: [4] 103 % of control | [13] 101 % of control | [14] 95 % of control

CC(C)(C)NC(=O)NCc1cccc2ccccc12
inactive: dose: 100.0 mg/kg/injection, schedule: Q01DX009 (ip), vehicle: other 103 % of control | dose: 200.0 mg/kg/injection, schedule: Q01DX009 (ip), vehicle: other 95 % of control | dose: 400.0 mg/kg/injection, schedule: Q01DX009 (ip), vehicle: other 90 % of control

CC(=O)OC(c1ccccc1)c1ccccn1 (centres undefined)
inactive: [15] 105 % of control | [16] 98 % of control | [17] 94 % of control

CONP(=O)(Oc1ccccc1)Oc1ccccc1
inactive: [4] 95 % of control | [13] 95 % of control | [14] 97 % of control

CC(=O)Nc1ccnc(=O)[nH]1
inactive: dose: 75.0 mg/kg/injection, schedule: Q01DX001 (ip), vehicle: saline 106 % of control | dose: 150.0 mg/kg/injection, schedule: Q01DX001 (ip), vehicle: saline 95 % of control

CC(=O)Nc1cc2c(cc1[N+](=O)[O-])-c1ccc(F)cc1C2
inactive: dose: 50.0 mg/kg/injection, schedule: Q04DX003 (ip), vehicle: Klucel (hydroxypropylcellulose) (HPC) 104 % of control | [4] 94 % of control | [9] 96 % of control | [13] 96 % of control | [11] 100 % of control | [14] 91 % of control

OCC1CC2CCC1CC2 (centres undefined)
inactive: [15] 100 % of control | [16] 105 % of control | [17] 108 % of control

COc1ccccc1C(=O)N/N=C/c1ccc(O)cc1
inactive: [8] 101 % of control | [10] 97 % of control | [12] 94 % of control

O=C(C1CC=CCC1)N1CCCCCC1 (centres undefined)
inactive: dose: 100.0 mg/kg/injection, schedule: Q04DX002 (ip), vehicle: saline 101 % of control | dose: 200.0 mg/kg/injection, schedule: Q04DX002 (ip), vehicle: saline 111 % of control | dose: 400.0 mg/kg/injection, schedule: Q04DX002 (ip), vehicle: saline 99 % of control

CN(C)c1cc2c(cc1[N+](=O)[O-])-c1ccccc1C2=O
inactive: [5] 100 % of control | [6] 100 % of control | [7] 100 % of control

CCc1cccc(CC)c1N=C=Nc1c(CC)cccc1CC
inactive: dose: 100.0 mg/kg/injection, schedule: Q04DX003 (ip), vehicle: other 104 % of control | dose: 200.0 mg/kg/injection, schedule: Q04DX003 (ip), vehicle: other 100 % of control | dose: 400.0 mg/kg/injection, schedule: Q04DX003 (ip), vehicle: other 104 % of control
